Measurements: patent publication US9403843B2, “Cysteine protease inhibitors and uses thereof” (The Trustees of Columbia University in the City of New York, priority 2012, dated 2016)
Entries after “also recorded” stand apart in the source; their conditions may differ. Read-outs that look alike come from different tables or passages of the source.

Tests used:
full-length human Cal1 [1] = molecular target: T1, full-length human Cal1 (Homo sapiens (Human), UniProt P07384); experiment: Calpain inhibition FRET assay; type: biochemical; details: Table 3, 20 min incubation, FRET substrate
full-length human Cal1 [2] = molecular target: T1, full-length human Cal1; experiment: Calpain inhibition FRET assay; type: biochemical; details: for IC50: Table 2, approximate IC50, read-out: Cal I IC50
Protocol: Calpain activity was measured using full-length human Cal1 in the presence of a FRET substrate. IC50 values were approximated by co-incubation of varying concentrations of the appropriate inhibitor (10, 100, 500, 1000 nM) in the presence of the FRET substrate (DABCYL)TPLK-SPPSPR-(EDANS) (SEQ ID NO: 5) and activation buffer. […] A peptide inhibitor, Z-LLY-FMK (SEQ ID NO: 6), was used as a positive control.
The Calbiochem InnoZyme activity kit was used for measuring the inhibition effect inhibitors on human erythrocyte calpain 1 activity. […] 20 μM of the FRET substrate, 10 nM of native Cal1, and 20 μM TCEP (reducing agent) were added to the reaction mixture containing assay buffer (Tris [10 mM], NaCl [100 mM], pH 7.4). Cal1 was activated by the addition of 10 μM calcium. Cleavage of the scissile bond amide bond, K-S, releases the fluorophore (EDANS) from the internal quenching molecule (DABCYL), resulting in an increase in fluorescence measured at 320 nm excitation and 480 nm emission wave lengths for 30 min. Each inhibitor was added to the reaction mixture at varying concentrations (10 nM, 100 nM, 1 μM, and 10 μM) to detect inhibition of Cal1 and reduction in fluorescence was measured by 96 well-plate reader. Approximate IC50 values of each compound were generated using linear regression within Graphpad Prism Software.

[3] = >1: inhibition not quantifiable at 1 μM

T1 sequence (P07384 whole entry): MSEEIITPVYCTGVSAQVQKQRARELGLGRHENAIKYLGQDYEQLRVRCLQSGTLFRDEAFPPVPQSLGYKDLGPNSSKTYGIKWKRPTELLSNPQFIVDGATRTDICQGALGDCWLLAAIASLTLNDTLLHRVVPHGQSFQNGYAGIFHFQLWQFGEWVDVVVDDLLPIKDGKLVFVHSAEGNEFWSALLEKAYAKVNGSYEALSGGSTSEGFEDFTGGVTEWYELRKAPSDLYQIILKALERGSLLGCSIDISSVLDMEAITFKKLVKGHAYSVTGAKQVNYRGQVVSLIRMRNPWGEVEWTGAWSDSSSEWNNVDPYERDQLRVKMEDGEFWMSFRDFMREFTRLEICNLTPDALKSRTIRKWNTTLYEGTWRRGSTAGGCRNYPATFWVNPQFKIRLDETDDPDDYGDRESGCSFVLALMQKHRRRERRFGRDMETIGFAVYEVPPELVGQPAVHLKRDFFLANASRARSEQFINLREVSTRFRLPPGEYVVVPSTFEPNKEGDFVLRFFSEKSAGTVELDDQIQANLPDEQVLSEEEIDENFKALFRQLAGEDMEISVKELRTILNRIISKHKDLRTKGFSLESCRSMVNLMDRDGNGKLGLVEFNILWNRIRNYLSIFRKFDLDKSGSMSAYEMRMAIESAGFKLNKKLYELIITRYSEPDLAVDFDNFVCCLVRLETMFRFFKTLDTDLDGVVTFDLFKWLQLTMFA
T1 sequence (P04632 whole entry partner): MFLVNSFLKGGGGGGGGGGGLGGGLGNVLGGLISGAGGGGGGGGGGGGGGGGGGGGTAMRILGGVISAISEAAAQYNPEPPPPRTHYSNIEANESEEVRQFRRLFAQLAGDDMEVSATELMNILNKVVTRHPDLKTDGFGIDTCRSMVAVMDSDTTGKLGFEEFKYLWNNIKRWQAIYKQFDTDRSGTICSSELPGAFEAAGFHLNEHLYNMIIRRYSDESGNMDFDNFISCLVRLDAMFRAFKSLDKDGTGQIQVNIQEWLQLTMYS

Row | SMILES | IC50 (full-length human Cal1 [2]) [nM] | further results
1 | O=C(NCc1cn(-c2ccc(S(=O)(=O)N3CCCCC3)cc2)nn1)[C@H](Cc1cscn1)NC(=O)[C@H]1O[C@@H]1C(=O)O [Compound 51, (2S,3S)-3-((S)-1-oxo-1-((1-(4-(piperidin-1-ylsulfonyl)phenyl)-1H-1,2,3-triazol-4-yl)methylamino)-3-(thiazol-4-yl)propan-2-ylcarbamoyl)oxirane-2-carboxylic acid] | – | IC50 (full-length human Cal1 [1]; [3]): 1500 nM
2 | CCOC(=O)[C@H]1O[C@@H]1C(=O)N[C@@H](CC(C)C)C(=O)Nc1c(F)cccc1F [Compound 81] | > 1000 | –
3 | Cn1cncc1C[C@H](NC(=O)[C@H]1O[C@@H]1C(=O)O)C(=O)Nc1nc(-c2ccc(F)cc2)cs1 [Compound 35, (2S,3S)-3-((S)-1-(4-(4-fluorophenyl)thiazol-2-ylamino)-3-(1-methyl-1H-imidazol-5-yl)-1-oxopropan-2-ylcarbamoyl)oxirane-2-carboxylic acid] | 5000 | –
4 | CCOC(=O)[C@H]1O[C@@H]1C(=O)N[C@@H](CC(C)C)C(=O)Nc1ccccc1 [Compound 84] | 2500 | –
5 | CCOC(=O)[C@H]1O[C@@H]1C(=O)N[C@@H](CC(C)C)C(=O)Nc1nc(-c2ccc(F)cc2)cs1 [Compound 70] | > 1000 | –
6 | CC(C)C[C@H](NC(=O)[C@H]1O[C@@H]1C(=O)O)C(=O)N(C)c1nc(-c2ccc(F)cc2)cs1 [Compound 72] | 200 | –
7 | CCOC(=O)[C@H]1O[C@@H]1C(=O)N[C@@H](Cc1cnc[nH]1)C(=O)Nc1ccccc1 [Compound 85] | > 10000 | –
8 | CC(C)C[C@H](NC(=O)[C@H]1O[C@@H]1C(=O)O)C(=O)NCc1cn(-c2ccc(S(N)(=O)=O)cc2)nn1 [Compound 87] | 50 | –
9 | CC(C)C[C@H](NC(=O)[C@H]1O[C@@H]1C(=O)O)C(=O)NCCCCNS(=O)(=O)c1ccc(F)cc1 [Compound 68] | 100 | –
10 | CC(C)C[C@H](NC(=O)[C@H]1O[C@@H]1C(=O)O)C(=O)Nc1c(F)cccc1F [Compound 23a, (2S,3S)-3-((S)-1-(2,6-difluorophenylamino)-4-methyl-1-oxopentan-2-ylcarbamoyl)oxirane-2-carboxylic acid] | 50 | IC50 (full-length human Cal1 [1]): 100 nM
11 | CCOC(=O)[C@@H]1O[C@H]1C(=O)NC(C)C [Compound 73] | > 1000 | –
12 | CC(C)C[C@H](NC(=O)[C@@H]1O[C@H]1C(=O)O)C(=O)Nc1c(F)cccc1F [Compound 23b, (2R,3R)-3-((S)-1-(2,6-difluorophenylamino)-4-methyl-1-oxopentan-2-ylcarbamoyl)oxirane-2-carboxylic acid] | > 1000 | Cal1 inhibition (in words) (full-length human Cal1 [2]): not observed; IC50 (full-length human Cal1 [1]; [3]): > 1000 nM
13 | C#CCNC(=O)[C@H](CC(C)C)NC(=O)C1OC1c1ccccc1 (stereo partly shown) [Compound 60] | > 1000 | –
14 | CCOC(=O)[C@H]1O[C@@H]1C(=O)NC1(C(=O)NCCCCNS(=O)(=O)c2ccc(F)cc2)CCCCC1 [Compound 69] | > 1000 | –
15 | O=C(Nc1nc2ccc(F)cc2s1)[C@H](Cc1c[nH]cn1)NC(=O)[C@H]1O[C@@H]1C(=O)O [Compound 31a, (2S,3S)-3-((S)-1-(6-fluorobenzo[d]thiazol-2-ylamino)-3-(1H-imidazol-4-yl)-1-oxopropan-2-ylcarbamoyl)oxirane-2-carboxylic acid] | 535 | –
16 | CC(C)NC(=O)[C@@H]1O[C@H]1C(=O)O [Compound 74] | > 1000 | –
17 | O=C(O)[C@H]1O[C@@H]1C(=O)NCc1ccc(CO)cc1 [Compound 83] | > 1000 | –
18 | CC(C)C[C@H](NC(=O)[C@H]1O[C@@H]1C(=O)O)C(=O)Nc1ccccc1 [Compound 22, (2S,3S)-3-((S)-4-methyl-1-oxo-1-(phenylamino)pentan-2-ylcarbamoyl)oxirane-2-carboxylic acid] | 100 | –
19 | C#CCNC(=O)[C@H](CC(C)C)NC(=O)[C@H]1O[C@@H]1C(=O)O [Compound 88] | 275 | –
20 | NS(=O)(=O)c1ccc(-n2cc(CNC(=O)[C@H](Cc3cscn3)NC(=O)[C@H]3O[C@@H]3C(=O)O)nn2)cc1 [Compound 53, (2S,3S)-3-((S)-1-oxo-1-((1-(4-sulfamoylphenyl)-1H-1,2,3-triazol-4-yl)methylamino)-3-(thiazol-4-yl)propan-2-ylcarbamoyl)oxirane-2-carboxylic acid] | > 1000 | Cal1 inhibition (in words) (full-length human Cal1 [2]): relatively high IC50 values; IC50 (full-length human Cal1 [1]; [3]): > 1000 nM
21 | CCOC(=O)[C@H]1O[C@@H]1C(=O)NCc1ccc(CO)cc1 [Compound 82] | > 1000 | –

Row | SMILES | IC50 (full-length human Cal1 [2]) [nM] | further results
22 | CC(C)C[C@H](NC(=O)C1OC1c1ccccc1)C(=O)NCCCCNC(=O)CCCCC1CCSS1 (stereo partly shown) [Compound 62] | > 1000 | –
23 | CC(C)C[C@H](NC(=O)C1OC1c1ccccc1)C(=O)NCCCCNC(=N)N (stereo partly shown) [Compound 65] | > 1000 | –
24 | CCOC(=O)[C@H]1OC1C(=O)N[C@@H](CC(C)C)C(=O)NCCCCNC(=O)CCCC[C@@H]1SC[C@@H]2NC(=O)N[C@@H]21 (stereo partly shown) [Compound 59] | > 1000 | –
25 | CCOC(=O)[C@@H]1O[C@H]1C(=O)NCc1ccc(CO)cc1 [Compound 79] | > 1000 | –
26 | O=C(NCc1cn(-c2cc(C(F)(F)F)cc(C(F)(F)F)c2)nn1)[C@H](Cc1cscn1)NC(=O)[C@H]1O[C@@H]1C(=O)O [Compound 54, (2S,3S)-3-((S)-1-((1-(3,5-bis(trifluoromethyl)phenyl)-1H-1,2,3-triazol-4-yl)methylamino)-1-oxo-3-(thiazol-4-yl)propan-2-ylcarbamoyl)oxirane-2-carboxylic acid] | > 1000 | Cal1 inhibition (in words) (full-length human Cal1 [2]): relatively high IC50 values; also recorded: weak activity; IC50 (full-length human Cal1 [1]; [3]): > 1000 nM
27 | CCOC(=O)[C@@H]1O[C@H]1C(=O)N[C@@H](Cc1cnc[nH]1)C(=O)Nc1nc(-c2ccc(F)cc2)cs1 [Compound 77] | > 1000 | –
28 | O=C(NCc1cn(-c2ccc3c(c2)OCO3)nn1)[C@H](Cc1cscn1)NC(=O)[C@H]1O[C@@H]1C(=O)O [Compound 52, (2S,3S)-3-((S)-1-((1-(benzo[d][1,3]dioxol-5-yl)-1H-1,2,3-triazol-4-yl)methylamino)-1-oxo-3-(thiazol-4-yl)propan-2-ylcarbamoyl)oxirane-2-carboxylic acid] | 400 | Cal1 inhibition (in words) (full-length human Cal1 [2]): potent activity
29 | Cc1cc(C)c(-n2cc(CNC(=O)[C@H](Cc3cscn3)NC(=O)[C@H]3O[C@@H]3C(=O)O)nn2)c(C)c1 [Compound 58, (2S,3S)-3-((S)-1-((1-mesityl-1H-1,2,3-triazol-4-yl)methylamino)-1-oxo-3-(thiazol-4-yl)propan-2-ylcarbamoyl)oxirane-2-carboxylic acid] | > 1000 | Cal1 inhibition (in words) (full-length human Cal1 [2]): relatively high IC50 values; IC50 (full-length human Cal1 [1]; [3]): > 1000 nM
30 | CC(C)C[C@H](NC(=O)[C@H]1O[C@@H]1C(=O)O)C(=O)NCc1cn(-c2ccc(F)cc2)nn1 [Compound 86] | 30 | –
31 | O=C(Nc1nc2ccc(F)cc2s1)[C@H](Cc1c[nH]cn1)NC(=O)[C@@H]1O[C@H]1C(=O)O [Compound 31b, (2R,3R)-3-((S)-1-(6-fluorobenzo[d]thiazol-2-ylamino)-3-(1H-imidazol-4-yl)-1-oxopropan-2-ylcarbamoyl)oxirane-2-carboxylic acid] | > 1000 | IC50 (full-length human Cal1 [1]; [3]): > 1000 nM
32 | Cc1cc(C)c(NC(=O)[C@H](Cc2cnc[nH]2)NC(=O)[C@H]2O[C@@H]2C(=O)O)c(C)c1 [Compound 29, (2S,3S)-3-((S)-3-(1H-imidazol-5-yl)-1-(mesitylamino)-1-oxopropan-2-ylcarbamoyl)oxirane-2-carboxylic acid] | 5000 | –
33 | CCOC(=O)[C@H]1OC1C(=O)N[C@@H](CC(C)C)C(=O)NCCCCNS(=O)(=O)c1ccc(F)cc1 (stereo partly shown) [Compound 63] | > 1000 | –
34 | O=C(Nc1ccccc1)[C@H](Cc1cnc[nH]1)NC(=O)[C@H]1O[C@@H]1C(=O)O [Compound 28, (2S,3S)-3-((S)-3-(1H-imidazol-4-yl)-1-oxo-1-(phenylamino)propan-2-ylcarbamoyl)oxirane-2-carboxylic acid] | 5000 | –
35 | O=C(NCc1cn(-c2ccccc2)nn1)[C@H](Cc1cscn1)NC(=O)[C@H]1O[C@@H]1C(=O)O [Compound 49, (2S,3S)-3-((S)-1-oxo-1-((1-phenyl-1H-1,2,3-triazol-4-yl)methylamino)-3-(thiazol-4-yl)propan-2-ylcarbamoyl)oxirane-2-carboxylic acid] | – | IC50 (full-length human Cal1 [1]; [3]): 1000 nM
36 | CCOC(=O)[C@@H]1O[C@H]1C(=O)N[C@@H](CC(C)C)C(=O)Nc1nc(-c2ccc(F)cc2)cs1 [Compound 75] | > 1000 | –
37 | CCOC(=O)[C@@H]1O[C@H]1C(N)=O [Compound 76] | > 1000 | –
38 | O=C(Nc1ccccc1)[C@H](Cc1cscn1)NC(=O)[C@H]1O[C@@H]1C(=O)O [Compound 32, (2S,3S)-3-((S)-1-oxo-1-(phenylamino)-3-(thiazol-4-yl)propan-2-ylcarbamoyl)oxirane-2-carboxylic acid] | – | IC50 (full-length human Cal1 [1]; [3]): 2500 nM
39 | CCOC(=O)[C@H]1O[C@@H]1C(=O)N[C@@H](Cc1cnc[nH]1)C(=O)Nc1nc(-c2ccc(F)cc2)cs1 [Compound 78] | > 1000 | –
40 | CCOC(=O)[C@H]1O[C@@H]1C(=O)N[C@@H](CC(C)C)C(=O)N(C)c1nc(-c2ccc(F)cc2)cs1 [Compound 71] | > 1000 | –
41 | CCOC(=O)[C@@H]1O[C@H]1C(=O)N[C@@H](CC(C)C)C(=O)Nc1c(F)cccc1F [Compound 80] | > 1000 | –
